# Laboratory results from ChEMBL document CHEMBL6153097, “Design, synthesis, and biological evaluation of Flavokavain B derivatives as potent TRF2 inhibitors for the treatment of Osteosarcoma” (Eur J Med Chem, 2025).
# The source made the active and inactive calls. No cut-off for these calls is given here.
# Columns and labels:
# [1] = system: MG-63; test: Antitumor activity against human MG-63 cells xenografted in female BALB/c mouse model assessed as incomplete nuclei appearance in tumor tissue treated via oral gavage administered once a day for 3 weeks by HE staining analysis; format: functional, cell-based; conditions: dose 10-60 mg/kg
# [2] = Acute toxicity in mouse assessed as effect on body weight at 30 to 90 mg/kg, po single dose measured for 7 days; format: organism-based; conditions: in vivo, 168 h, dose 30-90 mg/kg, time 7 day
# [3] = system: MG-63; test: Induction of apoptosis in human MG-63 cells assessed as viable cells at 4 uM measured after 48 hrs annexin-V and propidium iodide staining based flow cytometry analysis (reference value: 90.7%); format: functional; conditions: read-out: Activity
# [4] = Acute toxicity in mouse assessed as change in weight of liver at 30 to 90 mg/kg, po single dose measured for 7 days; format: organism-based; conditions: in vivo, 168 h, dose 30-90 mg/kg, time 7 day
# [5] = system: U2OS; test: Antiproliferative activity against human U2OS cells assessed as reduction in cell viability incubated for 48 hrs by MTT assay; format: functional, cell-based
# [6] = system: U2OS; test: Induction of apoptosis in human U2OS cells assessed as reduction in colocalization of TRF2 with telomere at 2 to 4 microM by Immunofluorescence based FISH assay; format: functional, cell-based; conditions: dose 2-4 µM
# [7] = system: MG-63; test: Induction of apoptosis in human MG-63 cells assessed as late apoptotic cells at 2 uM measured after 48 hrs annexin-V and propidium iodide staining based flow cytometry analysis (reference value: 7.71%); format: functional
# [8] = system: MG-63; test: Induction of apoptosis in human MG-63 cells assessed as early apoptotic cells at 4 uM measured after 48 hrs annexin-V and propidium iodide staining based flow cytometry analysis (reference value: 0.66%); format: functional
# [9] = system: MG-63; test: Inhibition of TRF2 expression in human MG-63 cells by co-immunoprecipitation based Western blot analysis; format: functional, cell-based
# [10] = Acute toxicity in mouse assessed as change in weight of kidney at 30 to 90 mg/kg, po single dose measured for 7 days; format: organism-based; conditions: in vivo, 168 h, dose 30-90 mg/kg, time 7 day
# [11] = system: MG-63; test: Antitumor activity against human MG-63 cells xenografted in female BALB/c mouse model assessed as reduction in Ki67 level in tumor treated via oral gavage administered once a day for 3 weeks by IHC analysis; format: functional, cell-based; conditions: dose 10-60 mg/kg
# [12] = system: U2OS; test: Antiproliferative activity against human U2OS cells assessed as reduction in cell viability at 2 to 4 uM measured for 8 days by PDL assay; format: functional, cell-based; conditions: dose 2-4 µM, time 8.0 day
# [13] = system: U2OS; test: Induction of DNA damage response in human U2OS cells assessed as reduction in TRF2 expression by measuring accumulation of telomere-free ends at 2 to 4 uM by FITC/DAPI based Quantitative FISH (Q-FISH) assay; format: functional, cell-based; conditions: dose 2-4 µM
# [14] = system: U2OS; test: Induction of DNA damage in human U2OS cells assessed as increase in 53BP1 foci by Immunofluorescence based FISH assay; format: functional, cell-based; conditions: dose 2-4 µM
# [15] = system: U2OS; test: Induction of DNA damage response in human U2OS cells assessed as telomere dysfunction by measuring telomere length shortening at 2 to 4 uM by Immunofluorescence based FISH assay; format: functional, cell-based; conditions: dose 2-4 µM
# [16] = system: MG-63; test: Induction of apoptosis in human MG-63 cells assessed as early apoptotic cells at 2 uM measured after 48 hrs annexin-V and propidium iodide staining based flow cytometry analysis (reference value: 0.66%); format: functional
# [17] = system: MG-63; test: Induction of apoptosis in human MG-63 cells assessed as reduction in TRF2 foci at 2 to 4 microM by Immunofluorescence based FISH assay; format: functional, cell-based; conditions: dose 2-4 µM
# [18] = system: MG-63; test: Antitumor activity against human MG-63 cells xenografted in female BALB/c mouse model assessed as upregulation of gamma-H2AX in tumor treated via oral gavage administered once a day for 3 weeks by IHC analysis; format: functional, cell-based; conditions: dose 10-60 mg/kg
# [19] = system: U2OS; test: Downregulation of TRF expression levels in human U2OS cells measured after 48 hrs by Western blot analysis; format: functional, cell-based; conditions: dose 2-4 µM
# [20] = system: MG-63; test: Induction of apoptosis in human MG-63 cells assessed as necrotic cells at 4 uM measured after 48 hrs annexin-V and propidium iodide staining based flow cytometry analysis (reference value: 0.52%); format: functional
# [21] = system: MG-63; test: Induction of apoptosis in human MG-63 cells assessed as viable cells at 2 uM measured after 48 hrs annexin-V and propidium iodide staining based flow cytometry analysis (reference value: 90.7%); format: functional; conditions: read-out: Activity
# [22] = system: MG-63; test: […] inhibition of TRF2 expression in human MG-63 cells at 4 uM measured upto 12 hrs measured after drug washout by Western blot analysis; format: functional, cell-based
# [23] = system: U2OS; test: Induction of DNA damage in human U2OS cells assessed as increase in telomere dysfunction-foci at 4 uM by Immunofluorescence based FISH assay; format: functional, cell-based
# [24] = system: U2OS; test: Induction of apoptosis in human U2OS cells assessed as early apoptotic cells at 4 uM measured after 48 hrs annexin-V and propidium iodide staining based flow cytometry analysis (reference value: 2.38%); format: functional
# [25] = Acute toxicity in mouse assessed as alanine aminotransferase level (ALT) level in serum at 30 to 90 mg/kg, po single dose measured for 7 days; format: organism-based; conditions: in vivo, 168 h, dose 30-90 mg/kg, time 7 day
# [26] = system: MG-63; test: Induction of DNA damage response in human MG-63 cells assessed as telomere dysfunction by measuring telomere length shortening at 2 to 4 uM by Immunofluorescence based FISH assay; format: functional, cell-based; conditions: dose 2-4 µM
# [27] = Acute toxicity in mouse assessed as aspartate transaminase level (AST) level in serum at 30 to 90 mg/kg, po single dose measured for 7 days; format: organism-based; conditions: in vivo, 168 h, dose 30-90 mg/kg, time 7 day
# [28] = system: MG-63; test: Induction of DNA damage in human MG-63 cells assessed as upregulation of gamma-H2AX level by Immunofluorescence based FISH assay; format: functional, cell-based; conditions: dose 2-4 µM
# [29] = Acute toxicity in mouse assessed as change in weight of heart at 30 to 90 mg/kg, po single dose measured for 7 days; format: organism-based; conditions: in vivo, 168 h, dose 30-90 mg/kg, time 7 day
smiles,measurement,setting,value
COc1cc(OC)c(C(=O)/C=C/c2cccc(Br)c2)c(OC)c1,Activity,[1],Dose-dependent-effect
same,Activity,[2],Non-toxic
same,viability at 4 µM,[3],17.5%
same,Activity,[4],Non-toxic
same,IC50,[5],5.28 µM
same,Activity,[6],Active
same,Activity,[7],38.2%
same,Activity,[8],15.2%
same,inhibition,[9],Active
same,Activity,[10],Non-toxic
same,Activity,[11],Dose-dependent-effect; Compound Showed Significantly Stronger Effect Than Ar And Fkb04
same,Activity,[12],Active
same,Activity,[13],Active
same,Activity,[14],Dose-dependent-effect
same,Activity,[15],Dose-dependent-effect
same,Activity,[16],11.2%
same,Activity,[17],Active
same,Activity,[18],Dose-dependent-effect; Compound Showed Significantly Stronger Effect Than Ar And Fkb04
same,Activity,[19],Dose-dependent-effect
same,Activity,[20],5.47%
same,viability at 2 µM,[21],47.9%
same,Activity,[22],Active; Returned To Control Levels Within 4 Hrs
same,Activity,[23],Active
same,Activity,[24],31%
same,Activity,[25],Non-toxic
same,Activity,[26],Dose-dependent-effect
same,Activity,[27],Non-toxic
same,Activity,[28],Dose-dependent-effect
same,Activity,[29],Non-toxic
